Legend:
human prolactinoma cells = test: Realtime PCR of PRL in primary human prolactinoma cell cultures; assay type: cell-based; conditions: Tumor B; 0.1-5 μM, 24 hr, in the absence of added EGF
Method: A, B, D, and E. After trans-sphenoidal surgery of human prolactinomas, tumor cells were cultured. […] PRL levels in culture media were measured using RIA (B). H&E and PRL staining of tumor and confocal immunocytochemistry of EGFR and HER2 (Tumor A) (C), or for Tumor B (F). Magnification of these figures was 100×. […] PRL levels in culture media were measured using RIA (E). Prolactinoma cells (Tumor B) were treated with U0126 (0.1-5 μM) for 24 hr, and Realtime PCR of PRL performed (G).
Total RNA was extracted with Trizol reagent (Invitrogen) according to instructions of the manufacturer. The amount and the integrity of RNA were assessed by measurement of absorbance at 260 and 280 nm. Total RNA was reverse-transcribed into first-strand cDNA using iScript cDNA synthesis kit (Bio-Rad Laboratories, Inc.) according to the manufacturer. Quantitative PCR reactions were carried out in the iQ5 Multicolor Real-time PCR Detection System (Bio-Rad Laboratories, Inc.) as described (8). Certified RT^2 primer assays for rat GH, PRL and human PRL were purchased from SuperArray. Primer sequences (Invitrogen) were 5′-[…]-3′ (18S rRNA forward (F)), 5′-[…]-3′ (18S rRNA reverse (R)), 5′-[…]-3′ (human (3-actin F), 5′-[…]-3′ (human (3-actin R), 5′-[…]-3′ (human GAPDH F), 5′-[…]-3′ (human GAPDH R).
Human prolactinoma tissues were obtained at the time of surgery (Pituitary Center, Cedars-Sinai Medical Center) and transferred in 0.3% BSA containing DMEM according to an IRB-approved protocol. After washing with medium, tumor tissues were chopped with a sterile scalpel into approximately 1-2 mm pieces. Tissues were rinsed and digested with DMEM containing 0.3% BSA, 0.35% collagenase, and 0.15% hyaluronidase at 37° C. for 30 min The mixture was centrifuged at 1,500 rpm for 5 min at 4° C., and the cell pellet resuspended in an appropriate volume of culture medium containing 10% FBS and antibiotics in 48 well plates. After 24 hr incubation with serum depleted starvation medium (DMEM with 0.3% BSA), treatment agents were added with fresh serum-depleted medium (0.3% BSA), and medium collected for RIA. RNA was extracted after 24 hr treatment. Medium was also collected at baseline. To normalize for cell number effect, the PRL value of treated medium was divided by that of pre-treatment starvation medium to obtain a treated value for each well (n=4).

[1] = test system: GH3 cells stably expressing HER2CA; test: Realtime PCR of PRL and GH mRNA in GH3 stable transfectants; assay type: cell-based, rat; conditions: each respective transfectant (pcDNA3, HER2CA); 5 nM EGF or 6 nM HRG
Method: A. […] C. GH and PRL secretion in the culture medium determined by RIA. Hormone secretion levels were normalized for cell numbers, Values are mean±SEM. *p<0.05, **p<0.01. […] GH3 rat lacto-somatotroph tumor cells secreting PRL and GH were purchased from the American Type Culture Collection. HER2CA cells were generated by transfection with […]) purchased from Addgene (Addgene plasmid 16259). Stable colonies were selected in the presence of 500 μg/ml G418 (Invitrogen). A vector control cell line pcDNA3 was simultaneously established by transfecting pcDNA3 that lacked inserted cDNA. […] After synchronization by serum starvation (medium containing 0.2% bovine serum albumin for 24 h), cells with treatment agents was grown in fresh serum-depleted medium (0.2% bovine serum albumin), and samples collected at the indicated times. Total RNA was extracted with Trizol reagent (Invitrogen) according to instructions of the manufacturer. The amount and the integrity of RNA were assessed by measurement of absorbance at 260 and 280 nm. Total RNA was reverse-transcribed into first-strand cDNA using iScript cDNA synthesis kit (Bio-Rad Laboratories, Inc.) according to the manufacturer. Quantitative PCR reactions were carried out in the iQ5 Multicolor Real-time PCR Detection System (Bio-Rad Laboratories, Inc.) as described (8). […] Primer sequences (Invitrogen) were [NT] rRNA forward ([…] rRNA reverse ([NT] (human (3-actin [NT] (human (3-actin […]).

[2] = test system: GH3 cells stably expressing HER2CA; test: Soft agarose colony-forming assay, HER2CA transfectants; assay type: cell-based, rat; conditions: HER2CA transfectants, 10 d after seeding
Method: B. GH3 cells stably expressing HER2CA or pcDNA3 were plated (4,000 per well) in 96 well plates for the indicated times, and WST assay performed. C. […] Values are mean±SEM. *p<0.05, ** p<0.01, ^‡p<0.05 vs pcDNA3 control, ^†p<0.05 vs HER2CA control, ^‡‡p<0.05 vs pcDNA3 control, ^††p<0.05 vs HER2CA control.
Base layers consisting of growth medium containing 0.6% low-melting point agarose (Invitrogen) were poured onto 6-well plates and allowed to solidify. Cells (8×10^3 per well) were plated in triplicate in top layers consisting of growth medium containing 0.3% agarose. Seven to ten days later, cells were stained with 0.2% iodonitrotetrazolium chloride (Invitrogen), and colonies composed of 50 cells were counted manually in 5 randomly selected fields.

[3] = test system: GH3 cells stably expressing HER2CA; test: RIA of PRL and GH secretion in culture medium of GH3 stable transfectants; assay type: cell-based, rat; conditions: each respective transfectant (pcDNA3, HER2CA); 5 nM EGF or 6 nM HRG
Method: μM) for the indicated times, and Realtime PCR analysis performed. C. GH and PRL secretion in the culture medium determined by RIA. Hormone secretion levels were normalized for cell numbers, Values are mean±SEM. *p<0.05, **p<0.01.
GH3 rat lacto-somatotroph tumor cells secreting PRL and GH were purchased from the American Type Culture Collection. HER2CA cells were generated by transfection with pcDNA3-HER2CA (V654E) purchased from Addgene (Addgene plasmid 16259). Stable colonies were selected in the presence of 500 μg/ml G418 (Invitrogen). A vector control cell line pcDNA3 was simultaneously established by transfecting pcDNA3 that lacked inserted cDNA. After selection and propagation of stable transfectants, cells were cultured in DMEM/F12 medium containing 15% horse serum, 2.5% FBS, penicillin/streptomycin, and 500 μg/m G418. After synchronization by serum starvation (medium containing 0.2% bovine serum albumin for ˜24 h), cells with treatment agents was grown in fresh serum-depleted medium (0.2% bovine serum albumin), and samples collected at the indicated times.
RIAs for rat GH and PRL were performed in duplicate, using reagents provided by the National Hormone and Pituitary Program, National Institute of Diabetes and Digestive and Kidney Diseases (Harbor-UCLA Medical Center, Torrance, Calif., USA). Iodination of GH and PRL (5 μg) with iodine-125 (500 μCi) (PerkinElmer life & Analytical Sciences, Boston, Mass., USA) mixed with 0.1 mg Iodo-Gen (Pierce, Rockford, Ill.) was performed using 10-ml columns prepared by G-75 Sephadex (Sigma Chemical Co.). Low interspecies cross-reactivity of the GH and PRL assays were previously shown (8).

Molecule | suppression of human PRL expression (human prolactinoma cells) [%] | induction of PRL expression [1] | enhancement of colony formation in soft agar [2] [fold] | induction of PRL secretion [3]
N#CC(=C(/N)Sc1ccccc1N)/C(C#N)=C(\N)Sc1ccccc1N [U0126] | ~55 | – | – | –
EGF: epidermal growth factor, ErbB family receptor ligand, from Sigma (NSDSECPLSHDGYCLHDGVCMYIEALDKYACNCVVGYIGERCQYRDLKWWELR; Epidermal growth factor; UniProt P01133 971-1023, looked up) | – | approximately 2 fold | ~8 | approximately 2 fold
